Reference: ChEMBL document CHEMBL3286127, “Aminoadamantanes with persistent in vitro efficacy against H1N1 (2009) influenza A” (J Med Chem, 2014)
pEC50: −log10 of the molar value. Calls of active or inactive are those of the source. The rule behind the calls is not given here.

Columns and labels:
Influenza A virus [1] = experiment: Antiviral activity against Influenza A virus A2/Taiwan/1/64(H2N2) infected in MDCK cells expressing wild type M2 after overnight incubation by fluorescence-based miniplaque assay; assay type: functional, organism-based
Influenza A virus [2] = experiment: Antiviral activity against Influenza A virus A/Victoria/3/75(H3N2) infected in MDCK cells expressing wild type M2 after overnight incubation by fluorescence-based miniplaque assay; assay type: functional, organism-based
MDCK [3] = experiment: Cytotoxicity against MDCK cells at 50 uM after 18 hrs; assay type: cell-based, Canis lupus familiaris; settings: dog
HEK293 = assay type: cell-based; settings: Influenza A virus (A/California/07/2009(H1N1)), 10 uM
Influenza B virus = experiment: Antiviral activity against Influenza B virus B/Russia/69 infected in MDCK cells at 50 uM; assay type: functional, organism-based
Bovine parvovirus = experiment: Antiviral activity against Bovine parvovirus infected in bovine embryonic cells at 50 uM; assay type: functional, cell-based
MDCK [4] = experiment: Cytotoxicity against MDCK cells at 5 uM after 18 hrs; assay type: cell-based, Canis lupus familiaris; settings: dog

| Compound | pEC50 (Influenza A virus [1]) | pEC50 (Influenza A virus [2]) | Activity (MDCK [3]) | Activity (HEK293) | Activity (Influenza B virus) | Activity (Bovine parvovirus) | Activity (MDCK [4]) |
| --- | --- | --- | --- | --- | --- | --- | --- |
| NC1(c2ccccc2)C2CC3CC(C2)CC1C3 (centres undefined) | 6.70 | 5.10 | Non-toxic |  |  |  |  |
| CCCC1(N)C2CC3CC(C2)CC1C3 (centres undefined) | > 6.62 | 4.64 | Non-toxic | 63% | inactive | inactive |  |
| CC1(N)C2CC3CC(C2)CC1C3 (centres undefined) | 6.30 | 5.70 | Non-toxic |  | inactive |  |  |
| NC1(Cc2ccccc2)C2CC3CC(C2)CC1C3 (centres undefined) | 6.70 | 4.74 | Non-toxic |  |  |  |  |
| CCC1(N)C2CC3CC(C2)CC1C3 (centres undefined) | 6.10 | 5.70 | Non-toxic |  | inactive |  |  |
| CCCCCCC1(N)C2CC3CC(C2)CC1C3 (centres undefined) | 5.82 | 5.96 |  |  |  |  | Non-toxic |
| NC12CC3CC(CC(C3)C1)C2 [AMANTADINE] | 6.47 | 5.56 | Non-toxic |  |  |  |  |
| NC1C2CC3CC(C2)CC1C3 (centres undefined) | 6.10 | 5.48 | Non-toxic |  | inactive |  |  |
| CC(N)C12CC3CC(CC(C3)C1)C2 (centres undefined) [RIMANTADINE] | 5.80 | 6.28 | Non-toxic |  |  |  |  |
| CC(C)CC1(N)C2CC3CC(C2)CC1C3 (centres undefined) | 6.40 | 4.89 | Non-toxic |  |  |  |  |
| CCCCC1(N)C2CC3CC(C2)CC1C3 (centres undefined) | 5.82 | 5.40 | Non-toxic |  |  |  |  |
